The source of these data is patent US20080021069A1, “Receptor Function Regulating Agent” (TAKEDA PHARMACEUTICAL COMPANY LIMITED, priority 2004, published 2008).

Where only a bound is given, the exact number is not on record here.

As a reminder, the IC50 is the point on the concentration scale where inhibition reaches its midpoint. In general, melting point refers to the temperature, or range, at which the solid turns liquid.

T1 sequence (O14842 whole entry): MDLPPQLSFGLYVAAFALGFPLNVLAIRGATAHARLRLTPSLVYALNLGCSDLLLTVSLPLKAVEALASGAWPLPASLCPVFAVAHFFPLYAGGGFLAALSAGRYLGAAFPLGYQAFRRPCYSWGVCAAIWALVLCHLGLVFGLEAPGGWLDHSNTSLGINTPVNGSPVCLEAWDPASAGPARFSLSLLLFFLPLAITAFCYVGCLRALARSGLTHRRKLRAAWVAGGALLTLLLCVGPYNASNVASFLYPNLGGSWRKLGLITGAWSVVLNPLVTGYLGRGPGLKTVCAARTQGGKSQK

The first data set concerns the target T1, human GPR40 (Homo sapiens, UniProt O14842).
T1 construct: expressed in transfected cells; host or cells: CHO(dhfr-) cells: line CHO-hGPR40 No. 104 of WO2004/041266, with a stably expressed NFAT-TA-Luc reporter (CHO(dhfr-)/GPR40-NFAT-Luc)
The data set is described as follows: GPR40 antagonist activity with changes in intracellular calcium concentration as index (NFAT-luciferase reporter, CHO(dhfr-)/GPR40-NFAT-Luc cells). Conditions: CHO cell line expressing human GPR40, NFAT-Luc reporter; GPR40 agonist 3-(4-((6-benzyloxy-2',6'-dimethyl-biphenyl-3-yl)methoxy)phenyl)propanoic acid 40 nM; 4 hr culture; 0.1% fatty acid-free BSA. The class given is cell-based. An excerpt: Evaluation of GPR40 antagonist activity with changes in intracellular calcium concentration as index
An assay system of GPR40 antagonist was established as follows. In this assay system, as the GPR40 agonist, 3-(4-((6-benzyloxy-2′,6′-dimethyl-biphenyl-3-yl)methoxy)phenyl)propanoic acid (compound described in Example 340 of WO2004/041266) was used.
First, NFAT-TA was cut out from pNFAT-TA-Luc (manufactured by BD Bioscience Clontech) with HindIII and NheI, the recovered fragment was inserted into pGL3 basic neo digested with HindIII and NheI to give plasmid:pGL3 basic neo NFAT-TA-Luc.
This plasmid was used for “the CHO cell line (CHO-hGPR40 No. 104), which was made to express human GPR40” described in WO2004/041266, and a cell line CHO(dhfr-)/GPR40-NFAT-Luc, wherein a reporter gene was stably expressed by a method known per se, was prepared.
This cell line was diluted with a medium (nucleic acid-free MEM (Minimum Essential Medium)—α medium added with dialyzed FBS (Fetal Bovine Serum) to a final concentration of 10%) in such a manner that 2×10^4 cells/100 μl would be contained, dispensed to a white walled 96 well plate (manufactured by Coster) by 100 μl per well, and cultured overnight in a CO2 incubator. Then the medium was removed by suction from the 96 well plate, and a 10 mM test compound-dimethyl sulfoxide (manufactured by Wako Pure Chemical Industries, Ltd.) solution diluted with a medium (nucleic acid-free MEM—α medium added with bovine serum albumin (BSA) free of fatty acid to a final concentration of 0.1%) to each concentration was added by 50 μl per well. Further, 3-(4-((6-benzyloxy-2′,6′-dimethyl-biphenyl-3-yl)methoxy)phenyl)propanoic acid diluted with a medium (nucleic acid-free MEM-α (medium added with BSA free of fatty acid to a final concentration of 0.1%) to a final concentration of 40 nM was added to the 96 well plate by 50 μl per well.
After culture in a CO2 incubator for 4 hr, the culture medium was removed from the 96 well plate. Then, PicaGene (manufactured by TOYO INK MFG. CO., LTD.) was added to the 96 well plate, and the luciferase activity was determined using PerkinElmer ARVO (trade name, manufactured by PerkinElmer), based on which changes in the intracellular calcium concentration were evaluated. After assay of luciferase activity, nonlinear regression analysis was performed using PRISM 3 (trade name, manufactured by GraphPad) and IC50 value was calculated with changes in the intracellular calcium concentration as an index.
In the same manner as in Experimental Example 1, the IC50 value of the compound of the present invention was calculated.
In general terms: Calcium flux is commonly read through the fluorescence of an indicator in the cells.
`CC(C)Oc1ccc(-n2c(SCc3ccc(Cl)cc3)nc3cc(Cl)ccc32)cc1` [Example 46, 5-Chloro-2-[(4-chlorobenzyl)thio]-1-(4-isopropoxyphenyl)-1H-benzimidazole]: the IC50 is below 100 nM.

For `CCOc1ccc(-n2c(NCc3ccc(Br)cc3)nc3ccc(Cl)cc32)cc1` [Example 50, N-(4-Bromobenzyl)-6-chloro-1-(4-ethoxyphenyl)-1H-benzimidazol-2-amine], the IC50 is below 100 nM.

Take `CCOc1ccc(-n2c(NCc3ccc(C(C)(C)C)cc3)nc3ccc(Cl)cc32)cc1` [Example 51, N-(4-tert-Butylbenzyl)-6-chloro-1-(4-ethoxyphenyl)-1H-benzimidazol-2-amine]: the IC50 is below 100 nM.

Test system in a further data set: not given
Assay: not given
Settings: not given
For `CCOc1ccc(-n2c(NCc3ccc(Cl)cc3)nc3ccc(Cl)cc32)cc1.Cl` [Example 68, N-(4-Chlorobenzyl)-6-chloro-1-(4-ethoxyphenyl)-1H-benzimidazol-2-amine hydrochloride], the melting point fell in the range of 173 to 175 °C.

`CCOc1ccc(-n2c(NCc3ccc(Br)cc3)nc3ccc(Cl)cc32)cc1.Cl` [Example 69, N-(4-Bromobenzyl)-6-chloro-1-(4-ethoxyphenyl)-1H-benzimidazol-2-amine hydrochloride] showed a melting point of 135 to 138 °C.

`CCOc1ccc(-n2c(NCc3ccc(C(C)(C)C)cc3)nc3ccc(Cl)cc32)cc1.Cl` [Example 70, N-(4-tert-Butylbenzyl)-6-chloro-1-(4-ethoxyphenyl)-1H-benzimidazol-2-amine hydrochloride]: the melting point lay within 188 to 189 °C.

Compound `CCCCOc1ccc(-n2c(NCc3ccc(Br)cc3)nc3ccc(Cl)cc32)cc1` [Example 77, N-(4-Bromobenzyl)-1-(4-butoxyphenyl)-6-chloro-1H-benzimidazol-2-amine] came in with a melting point of 123 to 124 °C.

The compound `FC(F)(F)COc1ccc(-n2c(NCc3ccc(Cl)cc3)nc3ccc(Cl)cc32)cc1` [Example 79, 6-Chloro-N-(4-chlorobenzyl)-1-[4-(2,2,2-trifluoroethoxy)phenyl]-1H-benzimidazol-2-amine] showed a melting point of 150 to 151 °C.

For `CCCOc1ccc(-n2c(NCc3ccc(Br)cc3)nc3cc(Cl)ccc32)cc1` [Example 84, N-(4-Bromobenzyl)-5-chloro-1-(4-propoxyphenyl)-1H-benzimidazol-2-amine], the melting point fell in the range of 112 to 113 °C.

For the compound `CCCOc1ccc(-n2c(NCc3ccc(Cl)cc3)nc3cc(Cl)ccc32)cc1` [Example 85, 5-Chloro-N-(4-chlorobenzyl)-1-(4-propoxyphenyl)-1H-benzimidazol-2-amine], the melting point is 122 to 123 °C.

On to `CCCCOc1ccc(-n2c(NCc3ccc(Cl)cc3)nc3cc(Cl)ccc32)cc1` [Example 87, 1-(4-Butoxyphenyl)-5-chloro-N-(4-chlorobenzyl)-1H-benzimidazol-2-amine], for which the melting point fell in the range of 100 to 101 °C.

Consider `CCCCOc1ccc(-n2c(NCc3ccc(Br)cc3)nc3cc(Cl)ccc32)cc1` [Example 88, N-(4-Bromobenzyl)-1-(4-butoxyphenyl)-5-chloro-1H-benzimidazol-2-amine], for which the melting point was in the range of 95 to 96 °C.

`FC(F)(F)COc1ccc(-n2c(NCc3ccc(Br)cc3)nc3cc(Cl)ccc32)cc1` [Example 90, N-(4-Bromobenzyl)-5-chloro-1-[4-(2,2,2-trifluoroethoxy)phenyl]-1H-benzimidazol-2-amine] registered a melting point of 146 to 147 °C.

Take `FC(F)(F)COc1ccc(-n2c(NCc3ccc(Cl)cc3)nc3cc(Cl)ccc32)cc1` [Example 91, 5-Chloro-N-(4-chlorobenzyl)-1-[4-(2,2,2-trifluoroethoxy)phenyl]-1H-benzimidazol-2-amine]: the melting point lay within 138 to 139 °C.

As for `FC(F)(F)COc1ccc(-n2c(NCc3ccc(Cl)cc3)nc3cc(Cl)c(Cl)cc32)cc1` [Example 104, 5,6-Dichloro-N-(4-chlorobenzyl)-1-[4-(2,2,2-trifluoroethoxy)phenyl]-1H-benzimidazol-2-amine], the melting point lay in the range of 138 to 139 °C.

Consider `CCOC(=O)c1ccc2c(c1)nc(SCc1ccc(Cl)cc1)n2-c1ccc(OCC)cc1` [Example 107, Ethyl 2-[(4-chlorobenzyl)thio]-1-(4-ethoxyphenyl)-1H-benzimidazole-5-carboxylate], for which the melting point was 133 to 134 °C.

In turn, `CC(C)(C)OC(=O)Nc1ccc(-n2c(SCc3ccc(Cl)cc3)nc3ccc(Cl)cc32)cc1` [Example 114, tert-Butyl (4-{6-chloro-2-[(4-chlorobenzyl)thio]-1H-benzimidazol-1-yl}phenyl)carbamate] showed a melting point of 163 to 164 °C.

Regarding `OCc1ccc(-n2c(SCc3ccc(Cl)cc3)nc3ccc(Cl)cc32)cc1` [Example 115, (4-{6-Chloro-2-[(4-chlorobenzyl)thio]-1H-benzimidazol-1-yl}phenyl)methanol], the melting point lay within 121 to 122 °C.

`COCc1ccc(-n2c(SCc3ccc(Cl)cc3)nc3ccc(Cl)cc32)cc1` [Example 116, 6-Chloro-2-[(4-chlorobenzyl)thio]-1-[4-(methoxymethyl)phenyl]-1H-benzimidazole] registered a melting point of 97 to 98 °C.

`CCOCc1ccc(-n2c(SCc3ccc(Cl)cc3)nc3ccc(Cl)cc32)cc1` [Example 117, 6-Chloro-2-[(4-chlorobenzyl)thio]-1-[4-(ethoxymethyl)phenyl]-1H-benzimidazole] came in with a melting point of 95 to 96 °C.

In turn, `Clc1ccc(CSc2nc3ccc(Cl)cc3n2-c2ccc(OCc3ccccc3)cc2)cc1` [Example 119, 1-[4-(Benzyloxy)phenyl]-6-chloro-2-[(4-chlorobenzyl)thio]-1H-benzimidazole] gave a melting point of 193 to 194 °C.

The compound `Clc1ccc(CSc2nc3ccc(Cl)cc3n2-c2ccc(C3=NCCO3)cc2)cc1` [Example 124, 6-Chloro-2-[(4-chlorobenzyl)thio]-1-[4-(4,5-dihydro-1,3-oxazol-2-yl)phenyl]-1H-benzimidazole] displayed a melting point of 143 to 144 °C.

For `Clc1ccc(CSc2nc3ccc(Cl)cc3n2-c2ccccn2)cc1` [Example 130, 6-Chloro-2-[(4-chlorobenzyl)thio]-1-(pyridin-2-yl)-1H-benzimidazole], the melting point lay in the range of 107 to 108 °C.

In the case of `Clc1ccc(CSc2nc3cc(Cl)ccc3n2-c2ccc(OCc3ccccc3)cc2)cc1` [Example 133, 1-[4-(Benzyloxy)phenyl]-5-chloro-2-[(4-chlorobenzyl)thio]-1H-benzimidazole], the melting point lay within 137 to 138 °C.

As for `Clc1ccc(CSc2nc3ccc(Cl)cc3n2-c2ccc(-c3cnco3)cc2)cc1` [Example 136, 6-Chloro-2-[(4-chlorobenzyl)thio]-1-[4-(1,3-oxazol-5-yl)phenyl]-1H-benzimidazole], the melting point was 130 to 131 °C.

In turn, `CCOc1ccc(-n2c(SCc3ccc(Br)cc3)nc3cccc(Cl)c32)cc1` [Example 137, 2-[(4-Bromobenzyl)thio]-7-chloro-1-(4-ethoxyphenyl)-1H-benzimidazole] gave a melting point of 143 to 144 °C.

For the compound `CCOc1ccc(-n2c(SCc3ccc(Cl)cc3)nc3cccc(Cl)c32)cc1` [Example 138, 7-Chloro-2-[(4-chlorobenzyl)thio]-1-(4-ethoxyphenyl)-1H-benzimidazole], the melting point was 130 to 131 °C.

In turn, `CCOc1ccc(-n2c(SCc3ccc(C(C)(C)C)cc3)nc3cccc(Cl)c32)cc1` [Example 139, 2-[(4-tert-Butylbenzyl)thio]-7-chloro-1-(4-ethoxyphenyl)-1H-benzimidazole] yielded a melting point of 175 to 176 °C.

Regarding `FC(F)(F)Oc1ccc(-n2c(SCc3ccc(Cl)cc3)nc3ccc(Cl)cc32)cc1` [Example 141, 6-Chloro-2-[(4-chlorobenzyl)thio]-1-[4-(trifluoromethoxy)phenyl]-1H-benzimidazole], the melting point lay within 88 to 89 °C.

Turning to `FC(F)(F)Oc1ccc(-n2c(SCc3ccc(Cl)cc3)nc3cc(Cl)c(Cl)cc32)cc1` [Example 142, 5,6-Dichloro-2-[(4-chlorobenzyl)thio]-1-[4-(trifluoromethoxy)phenyl]-1H-benzimidazole], the melting point fell in the range of 111 to 112 °C.
